According to ChEMBL document CHEMBL4665655, “Highly tunable thiosulfonates as a novel class of cysteine protease inhibitors with anti-parasitic activity against Schistosoma mansoni” (Bioorg Med Chem, 2019):

Columns and labels:
[1] = Inhibition of cysteine protease in Schistosoma mansoni assessed as reduction in schistosomula viability incubated for 7 days by inverted microscopy analysis
[2] = Inhibition of cysteine protease in Schistosoma mansoni assessed as reduction in schistosomula viability incubated for 3 days by inverted microscopy analysis
[3] = molecular target: T1, Papain (Carica papaya, UniProt P00784); experiment: Inhibition of papaya papain assessed as reduction in p-nitoaniline release using Nalpha-benzoyl-L-arginine 4-nitroanilide hydrochloride as substrate measured after 1 hr
T1 sequence (P00784 whole entry): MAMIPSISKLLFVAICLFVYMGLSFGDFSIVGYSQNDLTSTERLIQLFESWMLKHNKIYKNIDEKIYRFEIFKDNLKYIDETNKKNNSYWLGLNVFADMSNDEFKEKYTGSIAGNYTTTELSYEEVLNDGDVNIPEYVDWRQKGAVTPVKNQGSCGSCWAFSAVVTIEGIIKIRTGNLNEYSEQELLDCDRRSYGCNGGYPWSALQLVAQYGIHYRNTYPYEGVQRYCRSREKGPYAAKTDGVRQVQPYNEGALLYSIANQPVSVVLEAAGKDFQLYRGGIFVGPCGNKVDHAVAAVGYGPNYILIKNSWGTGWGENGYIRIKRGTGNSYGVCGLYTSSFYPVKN

[4] = Aqueous stability of the compound in 0.1 M sodium phosphate buffer at pH 6 to 7 incubated under shaken condition by HPLC analysis; format: physicochemical
[5] = Aqueous stability of the compound in 0.1 M sodium phosphate buffer assessed as half life at pH 8 incubated under shaken condition by HPLC analysis; format: physicochemical
[6] = Aqueous stability of the compound in 0.1 M sodium phosphate buffer assessed as half life at pH 7 incubated under shaken condition by HPLC analysis; format: physicochemical
[7] = Aqueous stability of the compound in 0.1 M sodium phosphate buffer assessed as half life at pH 6 incubated under shaken condition by HPLC analysis; format: physicochemical
[8] = Aqueous stability of the compound in 0.1 M sodium phosphate buffer assessed as time taken for drug degradation at pH 7 to 8 incubated under shaken condition by HPLC analysis; format: physicochemical

SMILES | IC50 [1] | IC50 [2] | IC50 [3] | further results
CN1CCN(C(=O)N[C@@H](Cc2ccccc2)C(=O)N[C@@H](CCc2ccccc2)CSS(=O)(=O)C2CCCCC2)CC1.O=C(O)C(F)(F)F | 13.5 µM | 25.4 µM | 0.168 µM | Stabilty [4]: Stable; half-life [5]: 6 h
CN1CCN(C(=O)N[C@@H](Cc2ccccc2)C(=O)N[C@@H](CCCNC(=N)N)CSS(=O)(=O)c2ccc([N+](=O)[O-])cc2)CC1 | – | – | 0.129 µM | –
COc1ccc(S(=O)(=O)SC[C@H](CCCNC(=N)N)NC(=O)[C@H](Cc2ccccc2)NC(=O)N2CCN(C)CC2)cc1 | – | – | 0.124 µM | –
CN1CCN(C(=O)N[C@@H](Cc2ccccc2)C(=O)N[C@@H](CCCNC(=N)N)CSS(=O)(=O)C2CCCCC2)CC1 | – | – | 0.106 µM | –
Cc1ccc(S(=O)(=O)SC[C@H](CCCNC(=N)N)NC(=O)[C@H](Cc2ccccc2)NC(=O)N2CCN(C)CC2)cc1 | – | – | 0.162 µM | –
CN1CCN(C(=O)N[C@@H](Cc2ccccc2)C(=O)N[C@@H](CCc2ccccc2)CSS(=O)(=O)c2ccccc2)CC1 | 21.4 µM | 64.4 µM | 0.19 µM | –
COc1ccc(S(=O)(=O)SC[C@H](CCc2ccccc2)NC(=O)[C@H](Cc2ccccc2)NC(=O)N2CCN(C)CC2)cc1.O=C(O)C(F)(F)F | 13.6 µM | 44.9 µM | 0.148 µM | half-life [6]: 24 h; half-life [7]: 1 h
Cc1ccc(S(=O)(=O)SC[C@H](CCc2ccccc2)NC(=O)[C@H](Cc2ccccc2)NC(=O)N2CCN(C)CC2)cc1 | 26.9 µM | 41.1 µM | 0.182 µM | –
CN1CCN(C(=O)N[C@@H](Cc2ccccc2)C(=O)N[C@@H](CCc2ccccc2)CSS(=O)(=O)c2ccc([N+](=O)[O-])cc2)CC1.O=C(O)C(F)(F)F | 14.7 µM | 29.3 µM | 0.186 µM | half-life [7]: 1.45 h; Time [8]: < 1 h
CN1CCN(C(=O)N[C@@H](Cc2ccccc2)C(=O)N[C@@H](CCCNC(=N)N)CSS(=O)(=O)c2ccccc2)CC1 | – | – | 0.168 µM | –
O[C@@H](c1cc(C(F)(F)F)nc2c(C(F)(F)F)cccc12)[C@H]1CCCCN1 [(S,R)-MEFLOQUINE] | 0.4 µM | 2.4 µM | – | –
CN1CCN(C(=O)N[C@@H](Cc2ccccc2)C(=O)N[C@H](/C=C/S(=O)(=O)c2ccccc2)CCc2ccccc2)CC1 [K-777] | 7.3 µM | 59.9 µM | 0.081 µM | –
